# Calls of active or inactive are those of the source. The calls are words filed in the database; no cut-off is given here.
# Columns and labels:
# [1] = target: T1, Matrix protein VP40 (Lake Victoria marburgvirus (strain Ravn-87) (MARV) (Marburg virus (strainKenya/Ravn/1987))) (UniProt Q1PDC8); experiment: Inhibition of Marburg virus VP40 PPxY L-domain motif expressed in HEK293T cells assessed as reduction in VLP budding at 1 uM after 24 hrs by Western blot analysis relative to control; type: cell-based; conditions: HEK-293T
# T1 sequence (whole entry): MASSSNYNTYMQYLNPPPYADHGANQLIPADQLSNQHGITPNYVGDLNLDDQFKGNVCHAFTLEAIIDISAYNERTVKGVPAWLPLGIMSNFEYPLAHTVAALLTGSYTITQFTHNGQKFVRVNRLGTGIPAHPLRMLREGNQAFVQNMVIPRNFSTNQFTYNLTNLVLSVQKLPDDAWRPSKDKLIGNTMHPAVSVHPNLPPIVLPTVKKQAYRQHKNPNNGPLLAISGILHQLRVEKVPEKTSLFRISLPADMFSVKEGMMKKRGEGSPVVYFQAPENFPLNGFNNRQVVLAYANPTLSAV
# [2] = target: T1, Matrix protein VP40 (Lake Victoria marburgvirus (strain Ravn-87) (MARV) (Marburg virus (strainKenya/Ravn/1987))); experiment: Inhibition of Marburg virus VP40 PPxY L-domain motif expressed in HEK293T cells assessed as reduction in VLP budding at 1 uM relative to control; type: cell-based; conditions: HEK-293T
# [3] = system: Liver microsome; experiment: Half life in human liver microsomes; type: ADME
# [4] = system: Liver microsome; experiment: Intrinsic clearance in human liver microsomes assessed per mg of protein; type: ADME
# [5] = target: T1, Matrix protein VP40 (Lake Victoria marburgvirus (strain Ravn-87) (MARV) (Marburg virus (strainKenya/Ravn/1987))); experiment: Inhibition of Marburg virus VP40 PPxY L-domain motif expressed in HEK293T cells assessed as reduction in VLP budding at 0.1 uM relative to control; type: cell-based; conditions: HEK-293T
# [6] = target: T1, Matrix protein VP40 (Lake Victoria marburgvirus (strain Ravn-87) (MARV) (Marburg virus (strainKenya/Ravn/1987))); experiment: Inhibition of Marburg virus VP40 PPxY L-domain motif expressed in HEK293T cells assessed as reduction in VLP budding at 0.3 uM relative to control; type: cell-based; conditions: HEK-293T
# [7] = Half life in mouse liver microsomes; type: ADME
# [8] = Cytotoxicity against human HEK293T cells assessed as cell viability at 0.1 uM after 24 hrs by MTT assay relative to control; type: cell-based, HEK-293T; conditions: read-out: Activity
# [9] = Cytotoxicity against human HEK293T cells assessed as cell viability at 10 uM after 24 hrs by MTT assay relative to control; type: cell-based, HEK-293T; conditions: read-out: Activity
# [10] = Cytotoxicity against human HEK293T cells assessed as cell viability at 1 uM after 24 hrs by MTT assay relative to control; type: cell-based, HEK-293T; conditions: read-out: Activity
# [11] = Cytotoxicity against African green monkey Vero E6 cells assessed as cell viability at 0.01 uM after 24 hrs by MTT assay relative to control; type: cell-based; conditions: chlorocebus sabaeus, read-out: Activity
# [12] = target: T1, Matrix protein VP40 (Lake Victoria marburgvirus (strain Ravn-87) (MARV) (Marburg virus (strainKenya/Ravn/1987))); experiment: Inhibition of Marburg virus VP40 PPxY L-domain motif expressed in HEK293T cells assessed as reduction in VLP budding at 30 nM after 24 hrs by Western blot analysis relative to control; type: cell-based; conditions: HEK-293T
# [13] = Cytotoxicity against African green monkey Vero E6 cells assessed as cell viability at 0.1 uM after 24 hrs by MTT assay relative to control; type: cell-based; conditions: chlorocebus sabaeus, read-out: Activity
# [14] = Cytotoxicity against African green monkey Vero E6 cells assessed as cell viability at 10 uM after 24 hrs by MTT assay relative to control; type: cell-based; conditions: chlorocebus sabaeus, read-out: Activity
# [15] = Cytotoxicity against African green monkey Vero E6 cells assessed as cell viability at 1 uM after 24 hrs by MTT assay relative to control; type: cell-based; conditions: chlorocebus sabaeus, read-out: Activity
# [16] = target: T1, Matrix protein VP40 (Lake Victoria marburgvirus (strain Ravn-87) (MARV) (Marburg virus (strainKenya/Ravn/1987))); experiment: Inhibition of Marburg virus VP40 PPxY L-domain motif expressed in HEK293T cells assessed as reduction in VLP budding at 0.03 uM relative to control; type: cell-based; conditions: HEK-293T
# [17] = target: Cytochrome P450 3A4 (Homo sapiens, UniProt P08684); experiment: Inhibition of CYP3A4 (unknown origin) using midazolam as substrate; type: ADME
# [18] = target: T1, Matrix protein VP40 (Lake Victoria marburgvirus (strain Ravn-87) (MARV) (Marburg virus (strainKenya/Ravn/1987))); experiment: Inhibition of Marburg virus VP40 PPxY L-domain motif expressed in HEK293T cells assessed as reduction in VLP budding at 100 nM after 24 hrs by Western blot analysis; type: cell-based; conditions: HEK-293T
# [19] = Intrinsic clearance in mouse liver microsomes assessed per mg of protein; type: ADME
# [20] = Cytotoxicity against human HEK293T cells assessed as cell viability at 0.01 uM after 24 hrs by MTT assay relative to control; type: cell-based, HEK-293T; conditions: read-out: Activity
# [21] = Effect on cellular protein levels in human HEK293T cells infected with recombinant Vesicular stomatitis virus-M40 expressing Ebola virus VP40 PPxY L-domain motif at 30 to 100 nM after 8 hrs by Western blot analysis relative to control; type: ADME, cell-based; conditions: hek-293t, 0.1 µM
# [22] = system: HEK-293T; experiment: Inhibition of Ebola virus VP40 PPxY L-domain motif expressed in HEK293T cells assessed as reduction in VLP budding at 30 nM after 24 hrs by Western blot analysis relative to control; type: cell-based; conditions: Ebolavirus
# [23] = system: Vesicular stomatitis virus; experiment: Effect on viral protein levels in recombinant Vesicular stomatitis virus-M40 expressing Ebola virus VP40 PPxY L-domain motif infected in HEK293T cells at 30 to 100 nM after 8 hrs by Western blot analysis relative to control; type: ADME, organism-based; conditions: hek-293t, 0.1 µM
# [24] = system: HEK-293T; experiment: Inhibition of Ebola virus VP40 PPxY L-domain motif expressed in HEK293T cells assessed as reduction in VLP budding at 100 nM after 24 hrs by Western blot analysis relative to control; type: cell-based; conditions: Ebolavirus
# [25] = target: T1, Matrix protein VP40 (Lake Victoria marburgvirus (strain Ravn-87) (MARV) (Marburg virus (strainKenya/Ravn/1987))); experiment: Inhibition of Marburg virus VP40 PPxY L-domain motif-Nedd4 interaction in HEK293T cells coexpressing NYFP-Nedd4 and CYFP-mVP40 at 0.1 uM by inverted confocal microscopy based bimolecular complementation assay; type: cell-based; conditions: HEK-293T
# [26] = target: T1, Matrix protein VP40 (Lake Victoria marburgvirus (strain Ravn-87) (MARV) (Marburg virus (strainKenya/Ravn/1987))); experiment: Inhibition of Marburg virus VP40 PPxY L-domain motif expressed in HEK293T cells assessed as reduction in VLP budding at 25 uM relative to control; type: cell-based; conditions: HEK-293T
# [27] = target: T1, Matrix protein VP40 (Lake Victoria marburgvirus (strain Ravn-87) (MARV) (Marburg virus (strainKenya/Ravn/1987))); experiment: Inhibition of Marburg virus VP40 PPxY L-domain motif expressed in HEK293T cells assessed as reduction in VLP budding at 10 uM relative to control; type: cell-based; conditions: HEK-293T
# Chain of Cytochrome P450 3A4 (P08684 whole entry): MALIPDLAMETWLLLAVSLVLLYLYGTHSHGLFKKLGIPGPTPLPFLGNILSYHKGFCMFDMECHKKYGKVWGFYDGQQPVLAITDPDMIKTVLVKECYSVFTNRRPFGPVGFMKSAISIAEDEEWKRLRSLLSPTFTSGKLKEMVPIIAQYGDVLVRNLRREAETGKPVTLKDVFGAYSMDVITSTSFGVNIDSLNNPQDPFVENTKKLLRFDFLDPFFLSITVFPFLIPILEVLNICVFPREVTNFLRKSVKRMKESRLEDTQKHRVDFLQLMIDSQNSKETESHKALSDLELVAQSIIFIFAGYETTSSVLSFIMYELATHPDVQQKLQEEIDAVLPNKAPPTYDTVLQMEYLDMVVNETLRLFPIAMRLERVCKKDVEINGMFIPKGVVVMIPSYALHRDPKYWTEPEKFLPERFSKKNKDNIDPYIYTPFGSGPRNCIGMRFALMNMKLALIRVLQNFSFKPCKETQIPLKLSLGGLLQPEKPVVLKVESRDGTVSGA
SMILES,inhibition [2],t1/2 [3] [min],Intrinsic clearance [4] [mL/min],inhibition [5],inhibition [6],t1/2 [7] [min],"viability at 24 h, 0.1 µM [8] [%]","viability at 24 h, 10 µM [9] [%]","viability at 24 h, 1 µM [10] [%]","viability at 24 h, 0.01 µM [11] [%]","viability at 24 h, 0.1 µM [13] [%]","viability at 24 h, 10 µM [14] [%]","viability at 24 h, 1 µM [15] [%]",inhibition [16],IC50 [17] [µM],"viability at 24 h, 0.01 µM [20] [%]",also measured
Cc1nc2ccccc2nc1SCC(=O)NC(=O)Nc1ccccc1,88%,43.9,1.66,–,–,–,–,–,–,–,–,–,–,–,–,–,fold change (FC) [1]: 100
CCc1nc2ccccc2nc1SCC(=O)NC(=O)Nc1cccc(F)c1C,67%,31.3,–,inactive,inactive,54.8,–,–,–,–,–,–,–,–,–,–,–
Cc1ccc(NC(=O)NC(=O)CSc2nc3ccccc3nc2C)cc1,100%,57.7,0.95,100%,100%,< 1.4,81.9,52.8,61.8,98.4,93.9,69.8,78.5,93%,> 33,98.3,fold change (FC) [12]: 15; inhibition [18]: > 90%; CLH [19]: > 50 mL/min
O=C(CSc1nc2ccccc2nc1C(F)(F)F)NC(=O)Nc1ccccc1Cl,inactive,71.7,0.77,inactive,inactive,49.9,–,–,–,–,–,–,–,–,> 33,–,–
Cc1nc2ccccc2nc1SCC(=O)NC(=O)Nc1ccccc1Cl,–,76.1,0.72,99%,–,2,69.3,65.4,63.9,101,101,80.9,79.1,93%,> 33,96.9,Activity [21]: Non-toxic; inhibition [22]: Active; Activity [23]: Non-toxic; inhibition [12]: Active; inhibition [24]: Active; inhibition [25]: Active; inhibition [18]: Active
Cc1ccccc1NC(=O)NC(=O)CSc1nc2ccccc2nc1C,100%,46.6,–,98%,–,–,71.7,60.5,62.8,96.8,92.3,61.7,71.2,83%,> 33,98.6,fold change (FC) [12]: 3; inhibition [25]: Active; inhibition [18]: > 90%
Cc1nc2ccccc2nc1SCC(=O)NC(=O)Nc1ccccc1F,100%,–,–,98%,100%,–,–,–,–,–,–,–,–,inactive,–,–,–
Cc1nc2ccccc2nc1SCC(=O)NC(=O)Nc1cccc(F)c1C,–,> 90,0.54,100%,–,3.5,70.4,63.5,60.1,102,92.6,84,78.7,86%,> 33,95.1,Activity [21]: Non-toxic; Activity [23]: Non-toxic; inhibition [25]: Active
Cc1ccc(C)c(NC(=O)NC(=O)CSc2nc3ccccc3nc2C)c1,–,77.2,0.71,–,100%,1.9,–,–,–,–,–,–,–,68%,> 33,–,–
CCNC(=O)NC(=O)CSc1nc2ccccc2nc1C,inactive,–,–,inactive,–,–,–,–,–,–,–,–,–,–,–,–,inhibition [26]: 60%
COc1ccccc1NC(=O)NC(=O)CSc1nc2ccccc2nc1C,96%,–,–,60%,89%,–,–,–,–,–,–,–,–,inactive,–,–,–
Cc1nc2ccccc2nc1SCC(=O)NC(=O)NC1CC1,inactive,–,–,inactive,–,–,–,–,–,–,–,–,–,–,–,–,inhibition [27]: 60%
Cc1cccc(NC(=O)NC(=O)CSc2nc3ccccc3nc2C)c1,100%,–,–,inactive,71%,–,–,–,–,–,–,–,–,inactive,–,–,–

# Source: ChEMBL document CHEMBL3826909, “Quinoxaline-based inhibitors of Ebola and Marburg VP40 egress” (Bioorg Med Chem Lett, 2016)
